Structures are written as SMILES.

Series [1] has as its target Poly [ADP-ribose] polymerase 2 (Mus musculus, UniProt O88554). Briefly: Inhibition of mouse PARP-2.
Series [2] is described as follows: Solubility of the compound in water. It is filed as physicochemical.
The target of series [3] is T1, Poly [ADP-ribose] polymerase 1 (Homo sapiens, UniProt P09874). In words: Inhibition of PARP-1 (unknown origin) in broken nuclear preparation.
The target in series [4] is Poly [ADP-ribose] polymerase 1 (Bos taurus, UniProt P18493). Briefly: Inhibition of calf thymus PARP-1.
Sequence of Poly [ADP-ribose] polymerase 1 (Bos taurus, UniProt P18493) (P18493 whole entry): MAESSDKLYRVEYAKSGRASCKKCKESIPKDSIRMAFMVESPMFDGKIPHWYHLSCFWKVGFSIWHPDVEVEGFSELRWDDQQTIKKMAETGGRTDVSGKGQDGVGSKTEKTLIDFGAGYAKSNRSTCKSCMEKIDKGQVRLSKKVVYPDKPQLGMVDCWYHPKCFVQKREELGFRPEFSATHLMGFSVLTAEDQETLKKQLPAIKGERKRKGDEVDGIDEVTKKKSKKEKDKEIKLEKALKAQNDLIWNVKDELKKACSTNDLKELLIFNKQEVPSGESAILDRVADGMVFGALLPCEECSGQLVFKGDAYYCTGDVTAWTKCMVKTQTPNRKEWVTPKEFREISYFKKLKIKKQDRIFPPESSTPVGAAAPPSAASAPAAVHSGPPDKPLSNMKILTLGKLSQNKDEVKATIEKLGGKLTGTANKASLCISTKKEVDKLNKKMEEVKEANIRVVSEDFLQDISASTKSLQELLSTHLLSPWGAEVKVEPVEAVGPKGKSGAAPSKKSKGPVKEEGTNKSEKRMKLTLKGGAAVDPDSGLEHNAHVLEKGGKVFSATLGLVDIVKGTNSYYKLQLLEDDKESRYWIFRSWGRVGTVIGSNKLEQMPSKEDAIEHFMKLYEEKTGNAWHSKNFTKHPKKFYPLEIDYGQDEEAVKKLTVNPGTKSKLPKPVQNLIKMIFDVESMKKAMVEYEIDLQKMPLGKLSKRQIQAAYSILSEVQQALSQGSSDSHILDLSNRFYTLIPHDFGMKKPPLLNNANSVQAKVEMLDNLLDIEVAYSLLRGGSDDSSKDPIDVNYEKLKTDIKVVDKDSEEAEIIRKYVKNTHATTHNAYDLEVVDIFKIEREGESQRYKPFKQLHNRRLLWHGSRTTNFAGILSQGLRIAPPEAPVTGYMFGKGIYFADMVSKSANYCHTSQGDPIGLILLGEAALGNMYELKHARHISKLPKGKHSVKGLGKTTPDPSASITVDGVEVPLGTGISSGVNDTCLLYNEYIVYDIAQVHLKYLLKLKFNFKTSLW
The target of series [5] is T1, Poly [ADP-ribose] polymerase 1. In words: Inhibition of human PARP-1 assessed as synthesis of [3H]-ADP-ribose polymers from [3H]-NAD+ by scintillation proximity assay. On the technique in general: Scintillation proximity formats need no separation of bound from free tracer.

Sequence of Poly [ADP-ribose] polymerase 2 (O88554 whole entry): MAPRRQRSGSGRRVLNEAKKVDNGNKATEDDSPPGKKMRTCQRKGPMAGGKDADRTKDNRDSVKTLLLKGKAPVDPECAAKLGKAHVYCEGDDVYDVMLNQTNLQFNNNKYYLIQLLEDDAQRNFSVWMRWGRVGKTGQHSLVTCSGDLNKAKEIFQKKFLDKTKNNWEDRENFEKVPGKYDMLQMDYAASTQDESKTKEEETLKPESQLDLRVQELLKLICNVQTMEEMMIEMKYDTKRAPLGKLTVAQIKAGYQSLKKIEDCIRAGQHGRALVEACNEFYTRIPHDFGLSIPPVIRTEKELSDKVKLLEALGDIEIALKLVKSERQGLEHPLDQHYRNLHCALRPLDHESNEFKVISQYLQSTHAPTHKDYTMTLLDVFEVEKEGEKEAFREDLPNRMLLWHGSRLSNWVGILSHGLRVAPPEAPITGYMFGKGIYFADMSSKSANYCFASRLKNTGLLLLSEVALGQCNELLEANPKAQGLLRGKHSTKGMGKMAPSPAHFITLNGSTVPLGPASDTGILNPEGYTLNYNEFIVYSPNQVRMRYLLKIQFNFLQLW
T1 sequence (P09874 whole entry): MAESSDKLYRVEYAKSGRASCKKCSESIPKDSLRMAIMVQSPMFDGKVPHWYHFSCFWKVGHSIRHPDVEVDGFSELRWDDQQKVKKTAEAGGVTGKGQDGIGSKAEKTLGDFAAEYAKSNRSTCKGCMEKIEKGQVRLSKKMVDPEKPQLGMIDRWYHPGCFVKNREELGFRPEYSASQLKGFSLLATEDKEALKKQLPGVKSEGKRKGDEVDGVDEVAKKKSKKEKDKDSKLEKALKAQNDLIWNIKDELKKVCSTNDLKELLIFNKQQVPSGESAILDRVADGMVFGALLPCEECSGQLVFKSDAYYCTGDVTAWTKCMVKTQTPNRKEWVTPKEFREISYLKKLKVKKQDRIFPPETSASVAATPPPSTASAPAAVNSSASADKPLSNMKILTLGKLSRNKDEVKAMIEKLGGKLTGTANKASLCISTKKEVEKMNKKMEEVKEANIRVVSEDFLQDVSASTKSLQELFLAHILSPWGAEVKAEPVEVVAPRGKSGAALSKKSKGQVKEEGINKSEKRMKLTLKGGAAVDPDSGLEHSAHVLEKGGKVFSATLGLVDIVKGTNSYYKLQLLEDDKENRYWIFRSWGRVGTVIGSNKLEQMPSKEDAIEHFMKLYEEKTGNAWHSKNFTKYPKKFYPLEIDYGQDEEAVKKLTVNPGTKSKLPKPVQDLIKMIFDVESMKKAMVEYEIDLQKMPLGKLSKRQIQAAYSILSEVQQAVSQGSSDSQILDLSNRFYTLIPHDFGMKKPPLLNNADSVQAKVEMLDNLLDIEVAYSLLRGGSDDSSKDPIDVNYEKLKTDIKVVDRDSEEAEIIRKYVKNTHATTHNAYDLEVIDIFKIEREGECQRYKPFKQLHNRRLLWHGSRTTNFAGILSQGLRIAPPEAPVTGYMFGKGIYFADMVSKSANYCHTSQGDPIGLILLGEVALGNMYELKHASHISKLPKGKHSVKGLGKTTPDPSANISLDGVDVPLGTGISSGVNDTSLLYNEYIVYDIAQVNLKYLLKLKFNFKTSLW

The IC50 is the concentration that gives 50% inhibition. In series [1], `CCc1cc2c(N)cccc2c(=O)[nH]1` had an IC50 of 830 nM.

For the molecule `COc1ccc(-c2cc3c(N)cccc3c(=O)[nH]2)cc1`, the 50% inhibitory concentration (IC50) in series [1] stood at 730 nM.

For orientation: solubility means the dissolved amount per volume that the medium holds. In series [2], `Cc1cc2c(N)cccc2c(=O)[nH]1.Cl` showed a solubility greater than 30 mM.

On to `Nc1cccc2c(=O)[nH]c(-c3ccc(C(F)(F)F)cc3)cc12`, for which half-maximal inhibition in series [1] (IC50) was put at 170 nM.

Molecule `Nc1cccc2c(=O)[nH]c(-c3ccc(Cl)cc3)cc12` returned an IC50 in series [1] of 160 nM.

`CC(C)Cc1cc2c(N)cccc2c(=O)[nH]1.Cl` returned a solubility in series [2] greater than 30 mM.

`Cl.Nc1cccc2c(=O)[nH]c(-c3ccc(Cl)cc3)cc12` returned a solubility in series [2] greater than 30 mM.

As for `Nc1cccc2c(=O)[nH]c(-c3ccccc3)cc12`, in series [1], inhibition was half-maximal at 480 nM (IC50).

`Cl.Nc1cccc2c(=O)[nH]c(-c3ccc(C(F)(F)F)cc3)cc12` displayed a solubility in series [2] greater than 30 mM.

Turning to `Cl.Nc1cccc2c(=O)[nH]c(Cc3ccccc3)cc12`, the solubility in series [2] is greater than 30 mM.

As to `Nc1cccc2c(=O)[nH]ccc12`, the IC50 was found to be 300 nM in series [3], 250 nM in series [4] and 1600 nM in series [5].

For the molecule `CCc1cc2c(N)cccc2c(=O)[nH]1.Cl`, the solubility in series [2] was greater than 30 mM.

As for `Cl.Nc1cccc2c(=O)[nH]c(-c3ccccc3)cc12`, the solubility in series [2] was greater than 30 mM.

As to `Cc1ccc(-c2cc3c(N)cccc3c(=O)[nH]2)cc1`, half-maximal inhibition in series [1] (IC50) was put at 120 nM.

Consider `COc1ccc(-c2cc3c(N)cccc3c(=O)[nH]2)cc1.Cl`, for which the solubility in series [2] is greater than 30 mM.

In series [2], `Cc1ccc(-c2cc3c(N)cccc3c(=O)[nH]2)cc1.Cl` displayed a solubility greater than 30 mM.

In series [2], `CCCCCc1cc2c(N)cccc2c(=O)[nH]1.Cl` returned a solubility greater than 30 mM.

Consider `Cl.Nc1cccc2c(=O)[nH]c(-c3cccs3)cc12`, for which the solubility in series [2] was greater than 30 mM.

Turning to `Cc1cc2c(N)cccc2c(=O)[nH]1`, the IC50 in series [1] was found to be 260 nM.

For the origin of these results see ChEMBL document CHEMBL2413011, “One-pot tandem Hurtley-retro-Claisen-cyclisation reactions in the synthesis of 3-substituted analogues of 5-aminoisoquinolin-1-one (5-AIQ), a water-soluble inhibitor of PARPs” (Bioorg Med Chem, 2013).
